Measured values as given in PubChem BioAssay (NCI).
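Cultured in 96-well plates, cells were exposed to test compound for 48 hours across five concentrations. TGI: concentration producing complete growth inhibition.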

Key:
Test in all cases: NCI tumour cell line growth inhibition, 48 h
A498 renal = tested on: A498 renal
A549 NSCLC = tested on: A549 NSCLC
CCRF-CEM leukemia = tested on: CCRF-CEM leukemia
COLO 205 colon = tested on: COLO 205 colon
DLD-1 colon = tested on: DLD-1 colon
DMS 114 small cell lung = tested on: DMS 114 small cell lung
DMS 273 small cell lung = tested on: DMS 273 small cell lung
EKVX NSCLC = tested on: EKVX NSCLC
HCC-2998 colon = tested on: HCC-2998 colon
HCT-116 colon = tested on: HCT-116 colon
HCT-15 colon = tested on: HCT-15 colon
HL-60(TB) leukemia = tested on: HL-60(TB) leukemia
HOP-18 NSCLC = tested on: HOP-18 NSCLC
HOP-62 NSCLC = tested on: HOP-62 NSCLC
HT29 colon = tested on: HT29 colon
IGROV1 ovarian = tested on: IGROV1 ovarian
K-562 leukemia = tested on: K-562 leukemia
KM12 colon = tested on: KM12 colon
KM20L2 colon = tested on: KM20L2 colon
LOX IMVI melanoma = tested on: LOX IMVI melanoma
M19-MEL melanoma = tested on: M19-MEL melanoma
MALME-3M melanoma = tested on: MALME-3M melanoma
MCF7 breast = tested on: MCF7 breast
MOLT-4 leukemia = tested on: MOLT-4 leukemia
NCI-H226 lung = tested on: NCI-H226 lung
NCI-H23 lung = tested on: NCI-H23 lung
NCI-H460 lung = tested on: NCI-H460 lung
NCI-H522 lung = tested on: NCI-H522 lung
NCI/ADR-RES ovarian = tested on: NCI/ADR-RES ovarian
OVCAR-3 ovarian = tested on: OVCAR-3 ovarian
OVCAR-4 ovarian = tested on: OVCAR-4 ovarian
OVCAR-5 ovarian = tested on: OVCAR-5 ovarian
OVCAR-8 ovarian = tested on: OVCAR-8 ovarian
P388 leukemia = tested on: P388 leukemia
P388/ADR leukemia = tested on: P388/ADR leukemia
RPMI-8226 leukemia = tested on: RPMI-8226 leukemia
RXF 393 renal = tested on: RXF 393 renal
SF-268 CNS = tested on: SF-268 CNS
SF-295 CNS = tested on: SF-295 CNS
SF-539 CNS = tested on: SF-539 CNS
SK-MEL-2 melanoma = tested on: SK-MEL-2 melanoma
SK-MEL-28 melanoma = tested on: SK-MEL-28 melanoma
SK-MEL-5 melanoma = tested on: SK-MEL-5 melanoma
SK-OV-3 ovarian = tested on: SK-OV-3 ovarian
SN12C renal = tested on: SN12C renal
SN12K1 renal = tested on: SN12K1 renal
SNB-19 CNS = tested on: SNB-19 CNS
SNB-75 CNS = tested on: SNB-75 CNS
SNB-78 CNS = tested on: SNB-78 CNS
SW-620 colon = tested on: SW-620 colon
U251 CNS = tested on: U251 CNS
UACC-257 melanoma = tested on: UACC-257 melanoma
UACC-62 melanoma = tested on: UACC-62 melanoma
UO-31 renal = tested on: UO-31 renal
XF 498 CNS = tested on: XF 498 CNS

C=CC1(NC(=O)c2ccccc2)CCC(C(C)(C)C)CC1 (stereo not given)
TGI (A498 renal): > 100 µM | TGI (A549 NSCLC): > 100 µM | TGI (CCRF-CEM leukemia): 72.1 µM | TGI (COLO 205 colon): 43.2 µM | TGI (DLD-1 colon): > 100 µM | TGI (DMS 114 small cell lung): > 90.7 µM | TGI (DMS 273 small cell lung): > 73.2 µM | TGI (EKVX NSCLC): > 83.2 µM | TGI (HCC-2998 colon): > 100 µM | TGI (HCT-116 colon): 55.1 µM | TGI (HCT-15 colon): > 85 µM | TGI (HL-60(TB) leukemia): 33 µM | TGI (HOP-18 NSCLC): > 95.6 µM | TGI (HOP-62 NSCLC): > 90.5 µM | TGI (HT29 colon): 55 µM | TGI (IGROV1 ovarian): > 100 µM | TGI (K-562 leukemia): > 100 µM | TGI (KM12 colon): > 100 µM | TGI (KM20L2 colon): 39.7 µM | TGI (LOX IMVI melanoma): 39.3 µM | TGI (M19-MEL melanoma): 84.4 µM | TGI (MALME-3M melanoma): > 94.9 µM | TGI (MCF7 breast): > 83.5 µM | TGI (MOLT-4 leukemia): 30.3 µM | TGI (NCI-H226 lung): > 71.6 µM | TGI (NCI-H23 lung): > 85 µM | TGI (NCI-H460 lung): > 92.3 µM | TGI (NCI-H522 lung): 94 µM | TGI (NCI/ADR-RES ovarian): 76.1 µM | TGI (OVCAR-3 ovarian): 86.7 µM | TGI (OVCAR-4 ovarian): > 100 µM | TGI (OVCAR-5 ovarian): > 100 µM | TGI (OVCAR-8 ovarian): > 100 µM | TGI (P388 leukemia): 38.4 µM | TGI (P388/ADR leukemia): > 77.4 µM | TGI (RPMI-8226 leukemia): > 100 µM | TGI (RXF 393 renal): > 85.8 µM | TGI (SF-268 CNS): > 100 µM | TGI (SF-295 CNS): 74 µM | TGI (SF-539 CNS): > 100 µM | TGI (SK-MEL-2 melanoma): 56.6 µM | TGI (SK-MEL-28 melanoma): > 100 µM | TGI (SK-MEL-5 melanoma): 43.9 µM | TGI (SK-OV-3 ovarian): > 100 µM | TGI (SN12C renal): > 61.4 µM | TGI (SN12K1 renal): > 96.7 µM | TGI (SNB-19 CNS): > 100 µM | TGI (SNB-75 CNS): > 81.5 µM | TGI (SNB-78 CNS): > 100 µM | TGI (SW-620 colon): > 84.4 µM | TGI (U251 CNS): 53.8 µM | TGI (UACC-257 melanoma): > 77 µM | TGI (UACC-62 melanoma): 97.8 µM | TGI (UO-31 renal): 77.7 µM | TGI (XF 498 CNS): > 70.6 µM
